{"source": "patent US11357779B2", "about": "(G1 Therapeutics, Inc., priority 2018, dated 2022)", "key": {"[1]": {"conditions": "cited from earlier work"}, "[2]": {"experiment": "Steady-state AUC0-24,ss, (AUC0-24,ss)/dose, half-life and time to steady state: Compound I versus palbociclib, ribociclib, abemaciclib", "assay_type": "in vivo, human", "conditions": "for (AUC0-24,ss)/Dose (mg): in h·ng/mL/mg; for Time to Steady State / Time to Steady-State: FDA labeled dose, five half-lives; for AUC(0-t): human, in vivo, read-out: Extrapolated AUC0-24,ss", "excerpt": "The time to reach steady state was defined as five half-lives (97% steady state achieved). […] The AUC data are presented as the arithmetic mean. […] The AUC data are presented as the geometric mean. The steady-state AUC0-24 for various BID doses of abemaciclib provided in Table 89 was obtained from the above cited prior published studies. The AUC data are presented as the geometric mean."}, "[3]": {"conditions": "trial not given; cited from earlier work"}, "[4]": {"conditions": "cited from earlier work; for AUC0-24,ss: geometric mean; for AUC0-10,ss: arithmetic mean"}, "[5]": {"conditions": "abemaciclib, cited from earlier work"}, "[6]": {"conditions": "MONALEESA-2; cited from earlier work"}, "[7]": {"conditions": "Grade 3/4 neutropenia and leukopenia; cited from earlier work"}, "ME-016 tumor": {"tested_on": "ME-016 tumor", "experiment": "Murine BRAFmut melanoma PDX model, tumor growth and survival", "assay_type": "in vivo", "conditions": "ME-016 tumor-containing mice; Compound I 100 mg/kg, dabrafenib 25 mg/kg, trametinib 1 mg/kg", "procedure": "Mice containing a ME-016 tumor were treated with vehicle, Compound I (100 mg/kg), dabrafenib (25 mg/kg), trametinib (1 mg/kg), Compound I+dabrafenib, Compound I+trametinib, dabrafenib+trametinib, and Compound I+dabrafenib+trametinib."}}, "note": "Where two headings read alike, the source gives them in different places.", "data": [{"smiles": "CCN1CCN(Cc2ccc(Nc3ncc(F)c(-c4cc(F)c5nc(C)n(C(C)C)c5c4)n3)nc2)CC1", "note": "[abemaciclib, 2-pyrimidinamine, N-[5-[(4-ethyl-1-piperazinyl)methyl]-2-pyridinyl]-5-fluoro-4-[4-fluoro-2-methyl-1-(1-methylethyl)-1H-benzimidazol-6-yl]-]", "values": [{"measurement": "Diarrhea, patients", "setting": "[1]; MONARCH 1, abemaciclib alone", "result": 90, "unit": "%"}, {"measurement": "Grade 3 diarrhea, patients", "setting": "[1]; MONARCH 1, abemaciclib alone", "result": 20, "unit": "%"}, {"measurement": "Neutropenia, patients", "setting": "[1]; MONARCH 1, abemaciclib alone", "result": 37, "unit": "%"}, {"measurement": "Grade >3 decrease in neutrophil count (based on laboratory findings), patients", "setting": "[1]; MONARCH 1", "result": 27, "unit": "%"}, {"measurement": "(AUC0-24,ss)/Dose (mg)", "setting": "[2]; 75 mg BID", "result": 17.33}, {"measurement": "(AUC0-24,ss)/Dose (mg)", "setting": "[2]; 100 mg BID", "result": 39.10}, {"measurement": "(AUC0-24,ss)/Dose (mg)", "setting": "[2]; 150 mg BID", "result": 28.53}, {"measurement": "(AUC0-24,ss)/Dose (mg)", "setting": "[2]; 200 mg BID", "result": 27.60}, {"measurement": "patients with diarrhea required a dose reduction", "setting": "[3]", "result": 22, "unit": "%"}, {"measurement": "patients with diarrhea required dose omission", "setting": "[3]", "result": 22, "unit": "%"}, {"measurement": "AUC0-24,ss", "setting": "[4]; 75 mg BID", "result": 1300, "unit": "ng·h/mL"}, {"measurement": "AUC0-24,ss", "setting": "[4]; 100 mg BID", "result": 3910, "unit": "ng·h/mL"}, {"measurement": "AUC0-24,ss", "setting": "[4]; 150 mg BID", "result": 4280, "unit": "ng·h/mL"}, {"measurement": "AUC0-24,ss", "setting": "[4]; 200 mg BID", "result": 5520, "unit": "ng·h/mL"}, {"measurement": "estimated geometric mean accumulation ratio", "setting": "[5]; based on AUC", "result": "3.2 (59% CV)"}, {"measurement": "estimated geometric mean accumulation ratio", "setting": "[5]; based on Cmax", "result": "2.3 (50% CV)"}, {"measurement": "T1/2", "setting": "[5]; human", "result": "roughly 18.3 hours"}]}, {"smiles": "CN(C)C(=O)c1cc2cnc(Nc3ccc(N4CCNCC4)cn3)nc2n1C1CCCC1", "note": "[ribociclib, 7-cyclopentyl-N,N-dimethyl-2-((5-(piperazin-1-yl)pyridin-2-yl)amino)-7H-pyrrolo[2,3-d]pyrimidine-6-carboxamide]", "values": [{"measurement": "Time to Steady State", "setting": "[2]; 600 mg QD", "result": 6.8, "unit": "days"}, {"measurement": "Time to Steady-State", "setting": "[2]; 600 mg QD", "result": 162.5, "unit": "h"}, {"measurement": "neutropenia, most frequently reported adverse reaction", "setting": "[6]", "result": 75, "unit": "%"}]}, {"smiles": "CC(=O)c1c(C)c2cnc(Nc3ccc(N4CCNCC4)cn3)nc2n(C2CCCC2)c1=O", "note": "[palbociclib, 6-acetyl-8-cyclopentyl-5-methyl-2-(5-piperazin-1-yl-pyridin-2-ylammino)-8H-pyrido-[2,3-d]-pyrimidin-7-one]", "values": [{"measurement": "patients requiring a dose interruption", "setting": "[7]", "result": 71, "unit": "%"}, {"measurement": "patients requiring a dose reduction", "setting": "[7]", "result": 35, "unit": "%"}, {"measurement": "Extrapolated AUC0-24,ss", "setting": "[2]; 100 mg QD, AUC0-24=(AUC0-10)*2.49655", "result": 1478, "unit": "ng·h/mL"}, {"measurement": "Time to Steady State", "setting": "[2]; 125 mg QD", "result": 5.5, "unit": "days"}, {"measurement": "Time to Steady-State", "setting": "[2]; 125 mg QD", "result": 132.5, "unit": "h"}, {"measurement": "AUC(0-t)", "setting": "[2]; 25 mg QD, AUC0-24=(AUC0-10)*2.49655", "result": 297, "unit": "ng·h/mL"}, {"measurement": "AUC(0-t)", "setting": "[2]; 50 mg QD, AUC0-24=(AUC0-10)*2.49655", "result": 684, "unit": "ng·h/mL"}, {"measurement": "AUC(0-t)", "setting": "[2]; 75 mg QD, AUC0-24=(AUC0-10)*2.49655", "result": 1230, "unit": "ng·h/mL"}, {"measurement": "AUC(0-t)", "setting": "[2]; 125 mg QD, AUC0-24=(AUC0-10)*2.49655", "result": 1810, "unit": "ng·h/mL"}, {"measurement": "AUC(0-t)", "setting": "[2]; 150 mg QD, AUC0-24=(AUC0-10)*2.49655", "result": 2710, "unit": "ng·h/mL"}, {"measurement": "AUC0-10,ss", "setting": "[4]; 25 mg QD", "result": 119, "unit": "ng·h/mL"}, {"measurement": "AUC0-10,ss", "setting": "[4]; 50 mg QD", "result": 274, "unit": "ng·h/mL"}, {"measurement": "AUC0-10,ss", "setting": "[4]; 75 mg QD", "result": 492, "unit": "ng·h/mL"}, {"measurement": "AUC0-10,ss", "setting": "[4]; 100 mg QD", "result": 592, "unit": "ng·h/mL"}, {"measurement": "Mean Half-Life", "setting": "[4]; 125 mg QD, FDA labeled dose", "result": 26.5, "unit": "h"}, {"measurement": "AUC0-10,ss", "setting": "[4]; 125 mg QD", "result": 724, "unit": "ng·h/mL"}, {"measurement": "AUC0-10,ss", "setting": "[4]; 150 mg QD", "result": 1084, "unit": "ng·h/mL"}]}, {"smiles": "CC(C)(C)c1nc(-c2cccc(NS(=O)(=O)c3c(F)cccc3F)c2F)c(-c2ccnc(N)n2)s1", "note": "[Dabrefinib]", "values": [{"measurement": "Median OS", "setting": "ME-016 tumor", "result": 32, "unit": "days"}]}, {"smiles": "CC(=O)Nc1cccc(-n2c(=O)n(C3CC3)c(=O)c3c(Nc4ccc(I)cc4F)n(C)c(=O)c(C)c32)c1", "note": "[Trametinib]", "values": [{"measurement": "Median OS", "setting": "ME-016 tumor", "result": 42.5, "unit": "days"}]}]}
